Experimental data reported in patent US20040029254A1, “Method of screening anti-bacterial agents for effectiveness in treating persistant intracellular infections” (University of Washington, priority 2002, published 2004).
In brackets after ≈: the same amount, converted by molar mass.

Experiments:
Type in all cases: cell-based
[1] = test system: C. trachomatis B,D,E,F,G,H,I,Ia,J,K (human genital serovars); assay: Anti-bacterial susceptibilities of reference strains
[2] = test system: clinical isolates of C. trachomatis; assay: microbe, parasite or virus in culture
[3] = test system: C. suis R-19 (porcine strain); conditions: McCoy cells; for MCC (microtiter): one freeze-thaw passage in microtiter plates; for MCC1 (shell vial): one passage in shell vials; for MCC3 (shell vial): three passages in shell vials; for MIC (microtiter): tetracycline-resistant strain
[4] = test system: C. trachomatis MoPn (mouse pneumonitis strain); assay: Anti-bacterial susceptibilities of reference strains
[5] = test system: C. trachomatis L2 (LGV serovar); assay: as above

CC[C@H]1OC(=O)[C@H](C)[C@@H](O[C@H]2C[C@@](C)(OC)[C@@H](O)[C@H](C)O2)[C@H](C)[C@@H](O[C@@H]2O[C@H](C)C[C@H](N(C)C)[C@H]2O)[C@](C)(O)C[C@@H](C)CN(C)[C@H](C)[C@@H](O)[C@]1(C)O [Azithromycin, azithromycin]
MCC1 (shell vial) [1]: >8 µg/mL | MCC3 (shell vial) [1]: 64 µg/mL | MCC (microtiter) [1]: 0.25 µg/mL | MCC1 [2]: 4 to 8 µg/mL | MCC3 [2]: 32 to 64 µg/mL | MCC (microtiter) [3]: 0.25 µg/mL | MCC1 (shell vial) [3]: >8 µg/mL | MCC3 (shell vial) [3]: >128 µg/mL | MCC1 (shell vial) [4]: >8 µg/mL | MCC3 (shell vial) [4]: 128 µg/mL | MCC (microtiter) [4]: 0.5 µg/mL | MCC1 (shell vial) [5]: >8 µg/mL | MCC3 (shell vial) [5]: 64 µg/mL | MCC (microtiter) [5]: 0.25 µg/mL

C[C@H]1c2cccc(O)c2C(=O)C2=C(O)[C@]3(O)C(=O)C(C(N)=O)=C(O)[C@@H](N(C)C)[C@@H]3[C@@H](O)[C@@H]21 [Doxycycline, doxycycline]
MCC1 (shell vial) [1]: >8 µg/mL | MCC3 (shell vial) [1]: 16 to 32 µg/mL | MCC (microtiter) [1]: 0.125 µg/mL | MCC1 [2]: 4 to 8 µg/mL | MCC3 [2]: 32 to 64 µg/mL | MCC (microtiter) [3]: 2.0 µg/mL | MCC1 (shell vial) [3]: >8 µg/mL | MIC (microtiter) [3]: 1.0 µg/mL (≈ 2.25 µM) | MCC3 (shell vial) [3]: >128 µg/mL | MCC1 (shell vial) [4]: >8 µg/mL | MCC3 (shell vial) [4]: 64 µg/mL | MCC (microtiter) [4]: 0.5 µg/mL | MCC1 (shell vial) [5]: >8 µg/mL | MCC3 (shell vial) [5]: 32 µg/mL | MCC (microtiter) [5]: 0.125 µg/mL

CCCN1CCN(c2cc(O)c3nc4c5c6c7c(C)c(O)c5c(=O)c(c-4oc3c2)NC(=O)/C(C)=C\C=C\[C@H](C)[C@H](O)[C@@H](C)[C@@H](O)[C@@H](C)[C@H](OC(C)=O)[C@H](C)[C@@H](OC)/C=C/O[C@@](C)(O7)C6=O)CC1 [KRM-1657]
MCC1 [2]: 0.0005 to 0.001 µg/mL | MCC3 [2]: 0.001 to 0.002 µg/mL

CC1COc2c(N3CCN(C)CC3)c(F)cc3c(=O)c(C(=O)O)cn1c23 (stereo not drawn) [Ofloxacin, ofloxacin]
MCC1 (shell vial) [1]: >8 µg/mL | MCC3 (shell vial) [1]: >128 µg/mL | MCC (microtiter) [1]: 1.0 µg/mL | MCC1 [2]: 8 to 16 µg/mL | MCC3 [2]: >128 µg/mL | MCC (microtiter) [3]: 1.0 µg/mL | MCC1 (shell vial) [3]: >8 µg/mL | MIC (microtiter) [3]: 0.5 µg/mL (≈ 1.38 µM) | MCC3 (shell vial) [3]: >128 µg/mL | MCC1 (shell vial) [4]: >8 µg/mL | MCC3 (shell vial) [4]: >128 µg/mL | MCC (microtiter) [4]: 1.0 µg/mL | MCC1 (shell vial) [5]: >8 µg/mL | MCC3 (shell vial) [5]: >128 µg/mL | MCC (microtiter) [5]: 1.0 µg/mL

CO[C@H]1/C=C/O[C@@]2(C)Oc3c(C)c(O)c4c(=O)c(c5oc6cc(N7CCN(CC(C)C)CC7)cc(O)c6nc-5c4c3C2=O)NC(=O)/C(C)=C\C=C\[C@H](C)[C@H](O)[C@@H](C)[C@@H](O)[C@@H](C)[C@H](OC(C)=O)[C@@H]1C [Rifalazil, rifalazil]
MCC1 [2]: 0.001 to 0.002 µg/mL | MCC3 [2]: 0.004 to 0.008 µg/mL
